By IC50 is commonly meant the point on the concentration scale where inhibition reaches its midpoint.

Common to all, as to assay type: biochemical
For one experiment, the target named is T1, JAK1 (Homo sapiens, UniProt P23458).
T1 construct: purchased Invitrogen Corporation, Madison, Wis; PV4775
Briefly: JAK enzymatic assay (peptide mobility shift), JAK1. Conditions: recombinant JAK1 20 nM, ATP 40 μM, 1 μM IRS-1 peptide, 240 minutes. From the text:
(§1) Recombinant JAK1 (Catalog Number PV4775), JAK2 (Catalog Number PV4210) and JAK3 (Catalog Number PV3855) were purchased from (Invitrogen Corporation, Madison, Wis.). Tyk2 (His-Tyk2 (888-1182, C936S, C1142S)) used in this study was expressed and purified at Pfizer Laboratories. Adenosine 5′-triphosphate (ATP) was obtained from (Sigma Chemical Company, St. Louis, Mo.). The JAKtide peptide (peptide sequence, FITC-[…]) used for the JAK2 and JAK3 assays and the IRS-1 peptide (peptide sequence, 5-FAM-[…]) used for the JAK1 and Tyk2 assays were purchased from (American Peptide Company, Sunnyvale, Calif.). Coating Reagent 3 was purchased from (Caliper Life Sciences, Hopkinton, Mass.).
(§2) A peptide mobility shift assay was used to quantify the phosphorylation of the JAKtide (JAK2 and JAK3) or the IRS-1 peptide ([…] and Tyk2). Reactions were carried out in a 384-well plate (Matrical MP-101) in a 10 μL total volume. Reaction mixtures contained 20 mM HEPES, pH 7.4, 10 mM magnesium chloride, 0.01% bovine serum albumin (BSA), 0.0005% Tween-20, ATP (4 μM for JAK2 and JAK3, 40 μM for JAK1 and 7 μM for Tyk2)), 2% DMSO and 1 μM peptide substrate (JAKtide for JAK2 and JAK3 and IRS-1 peptide for JAK1 and Tyk2). Compounds were diluted serially in 100% dimethyl sulfoxide and tested in an 11 point dose response in duplicate or quadruplicate (200 nl of compound/DMSO was added per 10 μL reaction). The reactions were initiated by the addition of enzyme to the final concentration of 2 nM JAK2, 1 nM JAK3, 12 nM Tyk2 or 20 nM JAK1. The assay was run for 240 minutes for JAK1, 150 minutes for JAK2, 90 minutes for JAK3 and 70 minutes for Tyk2. The assays were stopped at the specified times with 20 uL of 140 mM HEPES, 22.5 mM EDTA and 0.15% Coating Reagent 3. The plates were placed on a LabChip 3000 (LC3000) instrument from (Caliper Life Sciences) to measure the formation of phosphorylated peptide. Data was analyzed using Hits Well Analyzer Software from (Caliper Life Sciences) to obtain the amount of product formed.
(§3) Data was then imported into an internal application where each data point is expressed as % inhibition based on uninhibited and no enzyme controls. Dose-response data is then fit using a 4 parameter logistic equation (Equation 1) to determine an IC50.
(§4) Where max is the fitted uninhibited value, min is the fitted complete inhibition value, and s is the slope factor.

The next experiment has as its target T2, JAK3 (Homo sapiens, UniProt P52333).
T2 construct: purchased Invitrogen Corporation, Madison, Wis; PV3855
T2 sequence (P52333 1-1124): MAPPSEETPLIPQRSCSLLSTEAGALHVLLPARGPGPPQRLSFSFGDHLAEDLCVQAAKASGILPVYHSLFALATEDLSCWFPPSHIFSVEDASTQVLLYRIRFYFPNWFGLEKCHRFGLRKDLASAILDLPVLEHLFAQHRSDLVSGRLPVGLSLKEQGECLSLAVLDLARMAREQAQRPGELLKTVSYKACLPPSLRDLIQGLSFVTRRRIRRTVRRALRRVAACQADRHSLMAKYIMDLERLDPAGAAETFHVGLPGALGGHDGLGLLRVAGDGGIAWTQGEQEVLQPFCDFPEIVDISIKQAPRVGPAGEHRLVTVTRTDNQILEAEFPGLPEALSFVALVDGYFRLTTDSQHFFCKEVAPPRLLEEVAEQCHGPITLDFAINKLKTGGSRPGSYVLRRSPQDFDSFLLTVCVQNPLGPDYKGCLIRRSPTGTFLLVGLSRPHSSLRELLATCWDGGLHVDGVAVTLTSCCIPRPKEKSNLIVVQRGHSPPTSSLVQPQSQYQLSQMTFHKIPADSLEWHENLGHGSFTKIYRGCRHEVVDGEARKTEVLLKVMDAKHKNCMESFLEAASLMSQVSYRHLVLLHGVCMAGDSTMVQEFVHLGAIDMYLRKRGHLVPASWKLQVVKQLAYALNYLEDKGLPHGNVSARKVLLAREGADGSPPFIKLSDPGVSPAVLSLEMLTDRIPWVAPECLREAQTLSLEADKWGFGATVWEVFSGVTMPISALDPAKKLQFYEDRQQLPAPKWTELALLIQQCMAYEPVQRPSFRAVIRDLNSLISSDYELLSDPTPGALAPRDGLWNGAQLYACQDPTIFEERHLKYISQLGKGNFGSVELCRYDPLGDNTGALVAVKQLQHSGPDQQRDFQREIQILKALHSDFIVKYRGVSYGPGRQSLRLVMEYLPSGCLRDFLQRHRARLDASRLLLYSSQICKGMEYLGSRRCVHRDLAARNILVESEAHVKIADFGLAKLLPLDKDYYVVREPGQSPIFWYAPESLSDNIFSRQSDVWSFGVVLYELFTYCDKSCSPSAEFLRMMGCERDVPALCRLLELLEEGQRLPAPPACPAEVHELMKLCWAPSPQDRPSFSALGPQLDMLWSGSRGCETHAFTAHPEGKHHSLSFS
Briefly: JAK enzymatic assay (peptide mobility shift), JAK3. The note with it: recombinant JAK3 1 nM, ATP 4 μM, 1 μM JAKtide peptide, 90 minutes.
Excerpt: Recombinant JAK1 (Catalog Number PV4775), JAK2 (Catalog Number PV4210) and JAK3 (Catalog Number PV3855) were purchased from (Invitrogen Corporation, Madison, Wis.). Tyk2 (His-Tyk2 (888-1182, C936S, C1142S)) used in this study was expressed and purified at Pfizer Laboratories. Adenosine 5′-triphosphate (ATP) was obtained from (Sigma Chemical Company, St. Louis, Mo.). […] Coating Reagent 3 was purchased from (Caliper Life Sciences, Hopkinton, Mass.).
as §2, §3, §4

The next experiment addresses T3, JAK2 (Homo sapiens, UniProt O60674).
T3 construct: purchased Invitrogen Corporation, Madison, Wis; PV4210
Briefly: JAK enzymatic assay (peptide mobility shift), JAK2. Conditions: recombinant JAK2 2 nM, ATP 4 μM, 1 μM JAKtide peptide, 150 minutes.
Excerpt: as §1, §2, §3, §4

SMILES strings stand for the structures.

T3 sequence (O60674 whole entry): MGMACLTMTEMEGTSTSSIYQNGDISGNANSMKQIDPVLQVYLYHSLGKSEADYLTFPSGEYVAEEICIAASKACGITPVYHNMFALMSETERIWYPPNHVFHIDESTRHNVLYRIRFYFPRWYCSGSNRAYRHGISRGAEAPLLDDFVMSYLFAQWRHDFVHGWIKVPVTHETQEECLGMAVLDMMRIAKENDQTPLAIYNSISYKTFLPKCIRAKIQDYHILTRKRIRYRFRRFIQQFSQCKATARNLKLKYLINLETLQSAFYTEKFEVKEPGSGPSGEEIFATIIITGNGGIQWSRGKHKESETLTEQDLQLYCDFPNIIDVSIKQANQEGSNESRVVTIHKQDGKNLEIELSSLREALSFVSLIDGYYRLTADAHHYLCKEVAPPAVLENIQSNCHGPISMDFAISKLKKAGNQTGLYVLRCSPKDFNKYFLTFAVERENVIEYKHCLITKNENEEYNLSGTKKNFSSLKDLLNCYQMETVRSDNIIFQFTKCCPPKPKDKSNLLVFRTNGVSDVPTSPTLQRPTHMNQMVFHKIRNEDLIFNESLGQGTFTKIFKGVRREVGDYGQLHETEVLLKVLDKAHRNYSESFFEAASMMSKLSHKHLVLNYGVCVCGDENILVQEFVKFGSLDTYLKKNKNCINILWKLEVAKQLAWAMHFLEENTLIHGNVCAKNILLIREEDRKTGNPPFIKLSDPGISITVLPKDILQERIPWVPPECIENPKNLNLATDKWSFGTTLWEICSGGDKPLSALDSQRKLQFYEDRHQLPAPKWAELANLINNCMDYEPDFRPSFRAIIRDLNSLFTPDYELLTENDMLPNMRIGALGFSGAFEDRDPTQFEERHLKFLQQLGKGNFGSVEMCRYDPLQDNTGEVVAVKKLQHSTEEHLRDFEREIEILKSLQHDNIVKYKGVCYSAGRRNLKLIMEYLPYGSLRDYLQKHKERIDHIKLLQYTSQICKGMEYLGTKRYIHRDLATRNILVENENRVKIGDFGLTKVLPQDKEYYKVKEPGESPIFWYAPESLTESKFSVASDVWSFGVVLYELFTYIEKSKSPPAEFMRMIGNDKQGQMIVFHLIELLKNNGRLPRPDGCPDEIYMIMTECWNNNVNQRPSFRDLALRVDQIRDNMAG
T1 sequence (P23458 whole entry): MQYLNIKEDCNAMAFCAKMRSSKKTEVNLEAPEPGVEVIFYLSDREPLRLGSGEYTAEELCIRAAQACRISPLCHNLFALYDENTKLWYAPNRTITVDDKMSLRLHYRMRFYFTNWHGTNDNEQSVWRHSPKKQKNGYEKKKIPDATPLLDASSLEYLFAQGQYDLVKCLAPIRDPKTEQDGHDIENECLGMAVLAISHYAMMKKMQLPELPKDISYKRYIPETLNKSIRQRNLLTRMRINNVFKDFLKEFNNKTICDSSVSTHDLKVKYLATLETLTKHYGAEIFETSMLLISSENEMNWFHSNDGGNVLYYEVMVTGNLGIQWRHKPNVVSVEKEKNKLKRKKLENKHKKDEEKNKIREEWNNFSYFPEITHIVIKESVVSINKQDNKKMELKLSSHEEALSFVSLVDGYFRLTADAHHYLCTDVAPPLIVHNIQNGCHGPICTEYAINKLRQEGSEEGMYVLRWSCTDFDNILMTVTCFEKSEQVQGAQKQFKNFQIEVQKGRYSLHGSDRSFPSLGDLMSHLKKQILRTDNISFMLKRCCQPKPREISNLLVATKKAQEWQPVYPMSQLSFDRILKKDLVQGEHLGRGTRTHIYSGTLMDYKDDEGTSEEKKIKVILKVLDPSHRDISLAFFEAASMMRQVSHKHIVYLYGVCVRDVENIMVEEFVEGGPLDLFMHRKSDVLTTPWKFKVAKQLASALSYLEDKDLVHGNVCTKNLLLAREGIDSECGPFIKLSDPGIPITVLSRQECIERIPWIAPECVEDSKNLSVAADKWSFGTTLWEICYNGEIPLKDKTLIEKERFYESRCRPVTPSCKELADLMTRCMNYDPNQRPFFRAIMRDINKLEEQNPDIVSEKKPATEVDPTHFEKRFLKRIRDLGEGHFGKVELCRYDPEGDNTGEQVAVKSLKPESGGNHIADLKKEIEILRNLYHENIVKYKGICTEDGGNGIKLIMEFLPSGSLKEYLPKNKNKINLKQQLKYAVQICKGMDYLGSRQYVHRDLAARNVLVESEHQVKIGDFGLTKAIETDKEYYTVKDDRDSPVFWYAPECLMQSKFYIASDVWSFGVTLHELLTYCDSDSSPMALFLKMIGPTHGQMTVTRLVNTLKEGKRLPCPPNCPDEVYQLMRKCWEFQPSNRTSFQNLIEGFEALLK

As for `CN(c1ncnc2[nH]ccc12)[C@H]1CC[C@H](CS(=O)(=O)NCCc2ccccc2)CC1` [Example 15, 1-{trans-4-[methyl(7H-pyrrolo-[2,3-d]pyrimidin-4-yl)amino]-cyclohexyl}-N-(2-phenylethyl)-methanesulfonamide], the half-inhibitory concentration (IC50) at JAK1 was 2.87 nM; on JAK3, 87.8 nM; at JAK2 it was 12 nM.
The matching figures for `CN(c1ncnc2[nH]ccc12)[C@H]1CC[C@H](CS(=O)(=O)NCc2ccccc2)CC1` [Example 16, N-benzyl-1-{trans-4-[methyl-(7H-pyrrolo[2,3-d]pyrimidin-4-yl)amino]-cyclohexyl}-methanesulfonamide]: 13.5 nM, 182 nM and 29.4 nM.
Regarding `CN(CCO)S(=O)(=O)C[C@H]1CC[C@H](N(C)c2ncnc3[nH]ccc23)CC1` [Example 17, N-(2-hydroxyethyl)-N-methyl-1-{trans-4-[methyl-(7H-pyrrolo[2,3-d]pyrimidin-4-yl)amino]cyclohexyl}-methanesulfonamide], the IC50 at JAK1 stood at 16.3 nM; at JAK3, 332 nM; on JAK2, 44.2 nM.
The matching figures for `COc1ccc(CNS(=O)(=O)C[C@H]2CC[C@H](N(C)c3ncnc4[nH]ccc34)CC2)cc1` [Example 18, N-(4-methoxybenzyl)-1-{trans-4-[methyl(7H-pyrrolo[2,3-d]-pyrimidin-4-yl)amino]-cyclo-hexyl}methanesulfonamide]: 21.3 nM, 175 nM and 27.5 nM.
For `CN(c1ncnc2[nH]ccc12)[C@H]1CC[C@H](CS(=O)(=O)NCc2cccnc2)CC1` [Example 19, 1-{trans-4-[methyl(7H-pyrrolo[2,3-d]pyrimidin-4-yl)amino]cyclohexyl}-N-(pyridin-3-ylmethyl)-methanesulfonamide] the same measures were 9.3 nM, 376 nM and 57.9 nM.
The matching figures for `CN(c1ncnc2[nH]ccc12)[C@H]1CC[C@H](CS(=O)(=O)Nc2ccc(CC#N)cc2)CC1` [Example 20, N-[4-(cyanomethyl)phenyl]-1-{trans-4-[methyl(7H-pyrrolo[2,3-d]pyrimidin-4-yl)amino]cyclohexyl}methane-sulfonamide]: 9.58 nM, 96.1 nM and 38.1 nM.
`CN(c1ncnc2[nH]ccc12)[C@H]1CC[C@H](CS(=O)(=O)Nc2ccc(C#N)cc2)CC1` [Example 21, N-(4-cyanophenyl)-1-{trans-4-[methyl(7H-pyrrolo[2,3-d]pyrimidin-4-yl)amino]cyclohexyl}-methanesulfonamide]: the concentration for half-maximal inhibition (IC50) at JAK1 was found to be 10.3 nM; on JAK3, 140 nM; on JAK2, 52.4 nM.
For `CN(c1ncnc2[nH]ccc12)[C@H]1CC[C@H](CS(=O)(=O)Nc2ccn[nH]2)CC1` [Example 22, 1-{trans-4-[methyl(7H-pyrrolo[2,3-d]pyrimidin-4-yl)amino]cyclohexyl}-N-1H-pyrazol-5-yl-methanesulfonamide], the half-inhibitory concentration (IC50) at JAK1 is 15.2 nM; on JAK3 it was 241 nM; on JAK2, 32.4 nM.
The matching figures for `Cc1cc(NS(=O)(=O)C[C@H]2CC[C@H](N(C)c3ncnc4[nH]ccc34)CC2)n[nH]1` [Example 23, N-(5-methyl-1H-pyrazol-3-yl)-1-{trans-4-[methyl(7H-pyrrolo[2,3-d]pyrimidin-4-yl)amino]cyclohexyl}-methanesulfonamide]: 18.6 nM, 342 nM and 30.5 nM.
The matching figures for `CN(c1ncnc2[nH]ccc12)[C@H]1CC[C@H](CS(=O)(=O)Nc2ccc3[nH]ccc3c2)CC1` [Example 24, N-1H-indol-5-yl-1-{trans-4-[methyl(7H-pyrrolo[2,3-d]-pyrimidin-4-yl)amino]-cyclohexyl}-methanesulfonamide]: 1.65 nM, 55.8 nM and 4.55 nM.
The matching figures for `CN(c1ncnc2[nH]ccc12)[C@H]1CC[C@H](CS(=O)(=O)Nc2ccc(Cl)nc2)CC1` [Example 25, N-(6-chloropyridin-3-yl)-1-{trans-4-[methyl(7H-pyrrolo[2,3-d]pyrimidin-4-yl)-amino]cyclohexyl}-methanesulfonamide]: 18.6 nM, 228 nM and 57.4 nM.
As for `CN(c1ncnc2[nH]ccc12)[C@H]1CC[C@H](CS(=O)(=O)Nc2ccc3[nH]ncc3c2)CC1` [Example 26, N-1H-indazol-5-yl-1-{trans-4-[methyl(7H-pyrrolo[2,3-d]pyrimidin-4-yl)amino]-cyclohexyl}-methanesulfonamide], the half-maximal inhibitory concentration (IC50) at JAK1 is 19 nM; at JAK3 it was 175 nM; on JAK2, 39.4 nM.
Consider `CN(c1ncnc2[nH]ccc12)[C@H]1CC[C@H](CS(=O)(=O)Nc2ccc3c(c2)OCCCO3)CC1` [Example 27, N-(3,4-dihydro-2H-1,5-benzodioxepin-7-yl)-1-{trans-4-[methyl(7H-pyrrolo[2,3-d]-pyrimidin-4-yl)amino]-cyclo-hexyl}methanesulfonamide], for which the IC50 on JAK1 was determined as 2.19 nM; at JAK3, 54.3 nM; at JAK2, 7.47 nM.
As to `COc1ccc(NS(=O)(=O)C[C@H]2CC[C@H](N(C)c3ncnc4[nH]ccc34)CC2)cn1` [Example 28, N-(6-methoxypyridin-3-yl)-1-{trans-4-[methyl(7H-pyrrolo[2,3-d]pyrimidin-4-yl)amino]cyclohexyl}methane-sulfonamide], the IC50 at JAK1 amounted to 8.72 nM; at JAK3, 121 nM; at JAK2, 22.2 nM.
For `CN(Cc1cccc(N)n1)S(=O)(=O)C[C@H]1CC[C@H](N(C)c2ncnc3[nH]ccc23)CC1` [Example 29, N-[(6-aminopyridin-2-yl)methyl]-N-methyl-1-{trans-4-[methyl(7H-pyrrolo[2,3-d]pyrimidin-4-yl)amino]cyclohexyl}-methanesulfonamide] the same measures were 16.7 nM, 514 nM and 51 nM.

These data come from patent US8372854B2, “Pyrrolo[2,3-D]pyrimidine compounds” (Pfizer Inc., priority 2009, dated 2013).
